The values below come from EP4741383A1, “COMPOUND AND USE THEREOF AS ANTI-CANCER DRUG” (Tyligand Bioscience (Shanghai) Limited, priority 2023, dated 2025).

For orientation: IC50 means the concentration at which inhibition is half-maximal.

One assay concerns the target FAP1. Put plainly: Tyrosine phosphatase selectivity (pNPP substrate), FAP1. Type of assay: biochemical. The note with it: selectivity ratio FAP1 over SHP2. How it is done:
(§1) This experiment evaluated the selectivity of the disclosed compounds against tyrosine phosphatases, including SHP1, HePTP, Laforin, LMWPTP, LYP, PTP1B, PRL2, SSU72, VHR, FAP1, STEP, CDC14A, CD45, MEG2, and PP5, all expressed and purified from E. coli.
(§2) Phosphatase activity was measured using p-nitrophenyl phosphate (pNPP) (Fisher Scientific) as the substrate in 50 mM 3,3-dimethylglutaric acid buffer (pH 7.0, containing 1 mM EDTA), with ionic strength adjusted to 0.15 M with NaCl. […] After 10-60 minutes, the reaction was quenched by adding 20 µL of 5 N NaOH. Wells without enzyme were used as controls for correction. The amount of the product, p-nitrophenol, was determined by measuring the absorbance at 405 nm using a Spectra MAX340 microplate spectrophotometer (Molecular Devices), with a molar extinction coefficient of 18000 M^-1cm^-1.
(§3) Data were analyzed using GraphPad Prism software. Dose-response curves were obtained by fitting data using the nonlinear S-curve regression Dose-response-inhibition equation, and IC50 values were calculated.
Consider `O=C(Nc1ccc(-c2cc3cc(F)c(-c4nnn[nH]4)cc3n2C2CCC2)cc1)C(=O)Nc1ccc(N2CC3COCC3C2)cc1` (centres unmarked) [Example 114], for which the “IC50PTP/IC50SHP2 FAP1” value was 26.3.
Turning to `Cn1cc(-c2ccc(NC(=O)C(=O)Nc3ccc(-c4cc5cc(F)c(-c6nnc(C(F)(F)F)[nH]6)cc5n4C4CCC4)cc3)cc2)cn1` [Example 124], the “IC50PTP/IC50SHP2 FAP1” value came out at 139.7.

Another assay concerns the target T1, FAP1 (Homo sapiens, UniProt Q12923).
T1 sequence (Q12923 2163-2477): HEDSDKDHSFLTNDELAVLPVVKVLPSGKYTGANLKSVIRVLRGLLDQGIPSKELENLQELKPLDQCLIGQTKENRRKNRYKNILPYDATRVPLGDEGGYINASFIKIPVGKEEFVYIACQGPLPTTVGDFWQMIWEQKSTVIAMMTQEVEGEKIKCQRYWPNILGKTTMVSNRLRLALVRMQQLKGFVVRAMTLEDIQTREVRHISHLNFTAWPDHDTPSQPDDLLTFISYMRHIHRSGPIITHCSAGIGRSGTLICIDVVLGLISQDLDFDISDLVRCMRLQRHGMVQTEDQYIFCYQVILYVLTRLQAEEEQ
Described as above. The following applies: FAP1, pNPP substrate. Type of assay: biochemical. On the procedure: as §1, §2, §3
As for `O=C(Nc1ccc(-c2cc3cc(F)c(-c4nnn[nH]4)cc3n2C2CCC2)cc1)C(=O)Nc1ccc(N2CC3COCC3C2)cc1` (centres unmarked) [Example 114], the IC50 amounted to 1.9 µM.
Take `Cn1cc(-c2ccc(NC(=O)C(=O)Nc3ccc(-c4cc5cc(F)c(-c6nnc(C(F)(F)F)[nH]6)cc5n4C4CCC4)cc3)cc2)cn1` [Example 124]: the IC50 was above 100 µM.

The target of the next assay is T2, SHP1 (Homo sapiens, UniProt P29350).
T2 construct: made in house; host or cells: E. coli
T2 sequence (P29350 whole entry): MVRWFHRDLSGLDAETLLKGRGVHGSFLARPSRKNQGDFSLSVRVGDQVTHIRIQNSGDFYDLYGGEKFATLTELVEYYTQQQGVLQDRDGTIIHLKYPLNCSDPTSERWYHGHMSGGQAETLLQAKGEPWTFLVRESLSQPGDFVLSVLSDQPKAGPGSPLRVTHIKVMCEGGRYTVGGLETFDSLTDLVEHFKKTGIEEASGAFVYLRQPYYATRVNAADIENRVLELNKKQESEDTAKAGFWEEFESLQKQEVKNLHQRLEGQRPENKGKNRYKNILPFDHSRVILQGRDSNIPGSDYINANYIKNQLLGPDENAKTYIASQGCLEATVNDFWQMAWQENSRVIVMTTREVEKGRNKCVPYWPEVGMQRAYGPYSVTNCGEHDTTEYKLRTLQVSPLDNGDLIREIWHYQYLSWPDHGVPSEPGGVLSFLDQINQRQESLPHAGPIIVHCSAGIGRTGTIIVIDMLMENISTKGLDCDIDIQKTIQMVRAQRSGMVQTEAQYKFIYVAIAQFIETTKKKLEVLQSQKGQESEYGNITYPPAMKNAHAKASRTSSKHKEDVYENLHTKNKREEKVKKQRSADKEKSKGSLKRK
Nature of the assay: Tyrosine phosphatase selectivity (pNPP substrate), SHP1. Type of assay: biochemical. The note with it: SHP1, pNPP substrate. On the procedure: as §1, §2, §3
In turn, `O=C(Nc1ccc(-c2cc3cc(F)c(-c4nnn[nH]4)cc3n2C2CCC2)cc1)C(=O)Nc1ccc(N2CC3COCC3C2)cc1` (centres unmarked) [Example 114] registered an IC50 of 0.1 µM.
Compound `Cn1cc(-c2ccc(NC(=O)C(=O)Nc3ccc(-c4cc5cc(F)c(-c6nnc(C(F)(F)F)[nH]6)cc5n4C4CCC4)cc3)cc2)cn1` [Example 124] came in with an IC50 of 5.62 µM.

The assay is the same for the next values; noted with them: selectivity ratio SHP1 over SHP2.
In the case of `O=C(Nc1ccc(-c2cc3cc(F)c(-c4nnn[nH]4)cc3n2C2CCC2)cc1)C(=O)Nc1ccc(N2CC3COCC3C2)cc1` (centres unmarked) [Example 114], the “IC50PTP/IC50SHP2 SHP1” value amounted to 1.3.
Regarding `Cn1cc(-c2ccc(NC(=O)C(=O)Nc3ccc(-c4cc5cc(F)c(-c6nnc(C(F)(F)F)[nH]6)cc5n4C4CCC4)cc3)cc2)cn1` [Example 124], the “IC50PTP/IC50SHP2 SHP1” value came to 7.8.

In another assay the target is T3, CDC14A (Homo sapiens, UniProt Q9UNH5).
T3 construct: made in house; host or cells: E. coli
T3 sequence (Q9UNH5 1-594): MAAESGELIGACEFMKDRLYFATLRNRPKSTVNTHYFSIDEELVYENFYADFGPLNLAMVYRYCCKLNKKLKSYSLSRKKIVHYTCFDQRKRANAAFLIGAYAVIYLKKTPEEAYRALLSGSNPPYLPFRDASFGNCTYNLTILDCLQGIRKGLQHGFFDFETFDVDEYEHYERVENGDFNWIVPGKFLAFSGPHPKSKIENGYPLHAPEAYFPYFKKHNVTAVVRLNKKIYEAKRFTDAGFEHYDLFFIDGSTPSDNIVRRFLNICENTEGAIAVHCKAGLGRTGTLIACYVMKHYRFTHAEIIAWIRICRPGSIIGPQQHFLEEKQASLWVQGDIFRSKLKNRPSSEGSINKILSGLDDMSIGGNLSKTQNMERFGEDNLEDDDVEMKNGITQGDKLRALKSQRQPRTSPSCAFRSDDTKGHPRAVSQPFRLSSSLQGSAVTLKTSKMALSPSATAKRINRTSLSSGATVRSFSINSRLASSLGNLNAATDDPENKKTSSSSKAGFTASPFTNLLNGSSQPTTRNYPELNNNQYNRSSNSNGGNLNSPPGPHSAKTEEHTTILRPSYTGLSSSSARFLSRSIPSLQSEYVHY
Nature of the assay: Tyrosine phosphatase selectivity (pNPP substrate), CDC14A. The following applies: CDC14A, pNPP substrate. Type of assay: biochemical. On the procedure:
as §1, §2, §3
As for `Cn1cc(-c2ccc(NC(=O)C(=O)Nc3ccc(-c4cc5cc(F)c(-c6nnc(C(F)(F)F)[nH]6)cc5n4C4CCC4)cc3)cc2)cn1` [Example 124], the IC50 is above 100 µM.

Staying with this assay, now noted: selectivity ratio CDC14A over SHP2.
With `O=C(Nc1ccc(-c2cc3cc(F)c(-c4nnn[nH]4)cc3n2C2CCC2)cc1)C(=O)Nc1ccc(N2CC3COCC3C2)cc1` (centres unmarked) [Example 114], the “IC50PTP/IC50SHP2 CDC14A” value is recorded as 1388.
Still for that read-out and setting: the figure for `Cn1cc(-c2ccc(NC(=O)C(=O)Nc3ccc(-c4cc5cc(F)c(-c6nnc(C(F)(F)F)[nH]6)cc5n4C4CCC4)cc3)cc2)cn1` [Example 124] is 139.7.

A further assay deals with T4, HePTP (Homo sapiens, UniProt P35236).
T4 construct: made in house; host or cells: E. coli
T4 sequence (P35236 1-360): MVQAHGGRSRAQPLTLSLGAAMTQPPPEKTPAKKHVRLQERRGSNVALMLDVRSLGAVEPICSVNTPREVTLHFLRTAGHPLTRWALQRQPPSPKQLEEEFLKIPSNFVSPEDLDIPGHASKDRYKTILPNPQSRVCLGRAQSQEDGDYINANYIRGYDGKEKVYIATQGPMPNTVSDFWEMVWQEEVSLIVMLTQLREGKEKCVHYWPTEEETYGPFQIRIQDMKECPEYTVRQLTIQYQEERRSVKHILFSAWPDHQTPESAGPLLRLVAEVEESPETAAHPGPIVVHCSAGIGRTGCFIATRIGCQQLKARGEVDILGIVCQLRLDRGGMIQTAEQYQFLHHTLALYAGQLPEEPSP
Nature of the assay: Tyrosine phosphatase selectivity (pNPP substrate), HePTP. Type of assay: biochemical. The following applies: HePTP, pNPP substrate. How it is done: as §1, §2, §3
In turn, `O=C(Nc1ccc(-c2cc3cc(F)c(-c4nnn[nH]4)cc3n2C2CCC2)cc1)C(=O)Nc1ccc(N2CC3COCC3C2)cc1` (centres unmarked) [Example 114] displayed an IC50 of 1.06 µM.
Still for that read-out and setting: the result for `Cn1cc(-c2ccc(NC(=O)C(=O)Nc3ccc(-c4cc5cc(F)c(-c6nnc(C(F)(F)F)[nH]6)cc5n4C4CCC4)cc3)cc2)cn1` [Example 124] reads above 100 µM.

Staying with this assay, now noted: selectivity ratio HePTP over SHP2.
In the case of `O=C(Nc1ccc(-c2cc3cc(F)c(-c4nnn[nH]4)cc3n2C2CCC2)cc1)C(=O)Nc1ccc(N2CC3COCC3C2)cc1` (centres unmarked) [Example 114], the “IC50PTP/IC50SHP2 HePTP” value turned out to be 14.7.
On the same count and under the same terms, the result for `Cn1cc(-c2ccc(NC(=O)C(=O)Nc3ccc(-c4cc5cc(F)c(-c6nnc(C(F)(F)F)[nH]6)cc5n4C4CCC4)cc3)cc2)cn1` [Example 124] reads 139.7.

The next assay has as its target T5, PRL2 (Homo sapiens, UniProt Q12974).
T5 construct: made in house; host or cells: E. coli
T5 sequence (Q12974 1-167): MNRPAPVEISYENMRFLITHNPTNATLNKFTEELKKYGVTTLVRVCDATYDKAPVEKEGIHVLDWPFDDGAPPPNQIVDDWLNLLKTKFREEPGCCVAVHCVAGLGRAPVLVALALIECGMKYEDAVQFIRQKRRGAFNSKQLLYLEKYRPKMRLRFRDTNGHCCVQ
Nature of the assay: Tyrosine phosphatase selectivity (pNPP substrate), PRL2. The note with it: PRL2, pNPP substrate. It counts as biochemical. On the procedure:
as §1, §2, §3
On to `O=C(Nc1ccc(-c2cc3cc(F)c(-c4nnn[nH]4)cc3n2C2CCC2)cc1)C(=O)Nc1ccc(N2CC3COCC3C2)cc1` (centres unmarked) [Example 114], for which the IC50 was above 100 µM.
Same read-out and setting: the figure for `Cn1cc(-c2ccc(NC(=O)C(=O)Nc3ccc(-c4cc5cc(F)c(-c6nnc(C(F)(F)F)[nH]6)cc5n4C4CCC4)cc3)cc2)cn1` [Example 124] is above 100 µM.

The same assay, now with this note: selectivity ratio PRL2 over SHP2.
`O=C(Nc1ccc(-c2cc3cc(F)c(-c4nnn[nH]4)cc3n2C2CCC2)cc1)C(=O)Nc1ccc(N2CC3COCC3C2)cc1` (centres unmarked) [Example 114]: the “IC50PTP/IC50SHP2 PRL2” value is 1388.
The same measure, in the same setting: the result for `Cn1cc(-c2ccc(NC(=O)C(=O)Nc3ccc(-c4cc5cc(F)c(-c6nnc(C(F)(F)F)[nH]6)cc5n4C4CCC4)cc3)cc2)cn1` [Example 124] reads 139.7.

A further assay concerns the target T6, LMWPTP (Homo sapiens, UniProt P24666).
T6 construct: made in house; host or cells: E. coli
T6 sequence (P24666 1-158): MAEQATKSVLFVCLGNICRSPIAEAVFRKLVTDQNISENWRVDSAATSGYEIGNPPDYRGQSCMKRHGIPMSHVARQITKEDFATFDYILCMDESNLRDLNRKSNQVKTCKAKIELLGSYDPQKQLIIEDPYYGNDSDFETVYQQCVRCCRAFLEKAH
Nature of the assay: Tyrosine phosphatase selectivity (pNPP substrate), LMWPTP. Type of assay: biochemical. The following applies: LMPTP*, pNPP substrate. On the procedure:
as §1, §2, §3
`O=C(Nc1ccc(-c2cc3cc(F)c(-c4nnn[nH]4)cc3n2C2CCC2)cc1)C(=O)Nc1ccc(N2CC3COCC3C2)cc1` (centres unmarked) [Example 114] came in with an IC50 of 2.13 µM.
For the compound `Cn1cc(-c2ccc(NC(=O)C(=O)Nc3ccc(-c4cc5cc(F)c(-c6nnc(C(F)(F)F)[nH]6)cc5n4C4CCC4)cc3)cc2)cn1` [Example 124], the IC50 was above 20 µM.

Still in this assay, the particulars now being: selectivity ratio LMPTP* over SHP2.
Regarding `O=C(Nc1ccc(-c2cc3cc(F)c(-c4nnn[nH]4)cc3n2C2CCC2)cc1)C(=O)Nc1ccc(N2CC3COCC3C2)cc1` (centres unmarked) [Example 114], the “IC50PTP/IC50SHP2 LMPTP*” value was 29.5.
On the same count and under the same terms, the figure for `Cn1cc(-c2ccc(NC(=O)C(=O)Nc3ccc(-c4cc5cc(F)c(-c6nnc(C(F)(F)F)[nH]6)cc5n4C4CCC4)cc3)cc2)cn1` [Example 124] is 27.9.
